In EP0741709B1, “AROMATIC 2-AMINO-IMIDAZOLE DERIVATIVES AS ALPHA-2A ADRENOCEPTOR AGONISTS” (Allergan Sales, Inc., priority 1994, dated 1995):

Target: T1, rat α2B adrenoceptor (Rattus norvegicus, UniProt P19328)
T1 construct: expressed in transfected cells; host or cells: CHO (CHO-RNG)
T1 sequence (P19328 1-453): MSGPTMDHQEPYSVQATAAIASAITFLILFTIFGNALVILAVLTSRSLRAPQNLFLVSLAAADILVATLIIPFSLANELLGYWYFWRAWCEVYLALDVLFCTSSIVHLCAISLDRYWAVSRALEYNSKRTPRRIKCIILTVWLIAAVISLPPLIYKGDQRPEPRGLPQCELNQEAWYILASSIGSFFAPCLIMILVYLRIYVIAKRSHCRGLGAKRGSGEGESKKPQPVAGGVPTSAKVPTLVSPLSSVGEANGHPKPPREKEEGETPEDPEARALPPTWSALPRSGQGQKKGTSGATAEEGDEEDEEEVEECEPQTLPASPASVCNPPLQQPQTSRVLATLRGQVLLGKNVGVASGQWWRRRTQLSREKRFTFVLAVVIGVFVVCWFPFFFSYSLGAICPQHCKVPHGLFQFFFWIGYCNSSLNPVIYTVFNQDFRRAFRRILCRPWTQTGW
Test: Receptor binding assay, [3H]rauwolscine, CHO-RNG cell membranes
Conditions: 22°C, 30 minutes
Experimental: (§1) Cell preparation: Chinese hamster ovary (CHO) cells expressing the human α2A and human α2C (CHO-C10 and CHO-C4 respectively) receptors and CHO cells (CHO-RNG) expressing the rat α2B adrenoceptor were grown to near confluence in Dulbecco's modified Eagle's medium supplemented with 10% fetal bovine serum using standard cell culture methods. Cells were harvested by scraping and placed into cold buffer of the following composition: 50 mM Tris-HCl, 5 mM EDTA, pH 7.4). Cells were then homogenized with a Polytron homogenizer for 2 X 10 sec at setting #7, and centrifuged for 20 minutes at 49,000 x g. The pellet fraction was washed (resuspended in Tris-HCl, pH 8 buffer and centrifuged for 15-20 minutes at 49,000 x g) 2 times and stored at -100°C until binding assay.
Binding Studies: The radioligands [^3H]rauwolscine (specific activity 80 Ci/mmol) and [^3H]prazosin (specific activity 76 Ci/mmol) were obtained from New England Nuclear, Boston, MA. Frozen membrane pellet was resuspended in 25 mM glycine/glycine, pH 7.5 and incubated with radioligand under the following conditions: CHO-C10, CHO-RNG, CHO-C4-[^3H]rauwolscine, 22°C, 30 minutes; RKC-[^3H]rauwolscine, 0°C, 120 minutes; and, HCC-[^3H]prazosin, 22°C, 30 minutes in a final volume of 500 ul. At the end of the incubation period, the samples were filtered through glass filters (Whatman GF/B) in a 96 well cell harvester and rapidly washed four times with 4 mL of iced-cold 50 mM Tris-HCl buffer. The filters were then oven dried and transferred to scintillation vials containing 10 mL of Beckman's Ready Protein® scintillation cocktail for counting. Specific binding defined by 10 uM phentolamine for competition studies were as follows: 2.4 nM [^3H]brimonidine-RbICB 62%; 2.4 nM [^3H]rauwolscine-RbICB 75%; 2 nM [^3H]rauwolscine-RbKc 88%; 0.3 nM [^3H] rauwolscine-CHO-C10 99%; 0.4 nM [^3H]rauwolscine-CHO-RNG 99%, 0.3 nM [^3H]prazosin 87%; and 1 nM [^3H]rauwolscine-CHO-C4 90%. Protein concentrations were determined with a protein assay kit from Bio Rad. Binding isotherms, equilibrium dissociation and affinity constants were analyzed and determined by the non-linear least squares curve fitting programs EBDA (BioSoft) or AccuFit Competition/Saturation by Beckman.
as §1, with “α2A (CHO-C10)” for “α2A”, “and” for “and human α2C (CHO-C10 and CHO-C4 respectively) receptors and CHO cells (CHO-RNG) expressing”, “α2B(CHO-RNG) human α2Aadrenoceptors” for “α2B adrenoceptor”
The radioligands [^3H)rauwolscine (specific activity 80 Ci/mmol) and [^3H]prazosin (specific activity 76 Ci/mmol) were obtained from New England Nuclear, Boston, MA. Frozen membrane pellet was resuspended in 25 mM glycine/glycine, pH 7.4 and incubated with radioligand under the following conditions: CHO-C10, CHO-RNG, CHO-C4-[^3H]rauwolscine, 22°C, 30 min.; and, HCC-[^3H]prazosin, 22°C, 30 minutes in a final volume of 500 ul. At the end of the incubation period, the samples were filtered through glass fiber filters (Whatman GF/B) in a 96 well cell harvester and rapidly washed four times with 4 mL of iced-cold 50 mM Tris-CHl buffer. The filters were then oven dried and transferred to scintillation vials containing 5 mL of Beckman's Ready Protein® scintillation cocktail for counting. Specific binding defined by 10 uM phentolamine for competition studies were as follows: 0.3 nM[^3H] rauwolscine-CHO-C10 99%; 0.4 nM [^3H]rauwolscine-CHO-RNG 99%, and 0.3 nM [^3H] prazosin-HCC 87%. Protein concentrations were determined with a protein assay kit from Bio Rad. […]

SMILES | Ki [nM]
Cc1c(Nc2ncc[nH]2)ccc2nccnc12 | 1160
Clc1cccc(Cl)c1Nc1ncc[nH]1 | 587
Cc1c(Nc2ncc[nH]2)ccc2c1NCCO2 | 436
c1cc2c(c(Nc3ncc[nH]3)c1)CCCC2 | 152
Brc1ccccc1Nc1ncc[nH]1 | 1450
Brc1c(Nc2ncc[nH]2)ccc2nccnc12 | 12900

Continued by falling Ki, values first:

Ki [nM] | SMILES
1940 | Clc1ccccc1Nc1ncc[nH]1
1890 | c1ccc(Nc2ncc[nH]2)cc1
561 | Cc1ccccc1Nc1ncc[nH]1
434 | COc1ccc(Nc2ncc[nH]2)c(C)c1
82 | Cc1c(Nc2ncc[nH]2)ccc2c1OCCO2
